Test results: the supplement of paper PMC11061612

What was measured:
Test in all cases: Bliss excess, mean over the matrix (fraction); higher = more synergy
ACHN (Kidney Carcinoma) = test system: ACHN (Kidney Carcinoma)
How it was run: (§1)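 Cell lines grown in DMEM/F12 or RPMI with 10% FBS were plated in 1536-well plates and held 24 hours at 37°C, 5% CO2 before 72 hours of exposure to two-drug dose matrices, with DMSO typically at 0.2%. CellTiter-Glo 2.0 luminescence gave viability, which was converted to inhibition. Vehicle wells were set to 0 and blank wells to 1. Combination Emax is the second-highest inhibition in the matrix, and Bliss excess is the observed combination effect minus the expected EA + EB − EA·EB, where EA and EB are the single-agent effects.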

[1] = test system: AMO-1 (Plasma Cell Myeloma)
How it was run: as §1

[2] = test system: C-4-I (Cervical Carcinoma)
How it was run: as §1

[3] = test system: Caov-4 (Ovarian Carcinoma)
How it was run: as §1

D-263MG (Glioblastoma) = test system: D-263MG (Glioblastoma)
How it was run: as §1

[4] = test system: EoL-1-cell (Acute Myeloid Leukemia)
How it was run: as §1

[5] = test system: HSC-4 (Oral Cavity Carcinoma)
How it was run: as §1

[6] = test system: Hs-766T (Pancreatic Carcinoma)
How it was run: as §1

[7] = test system: LU-65 (Non-Small Cell Lung Carcinoma)
How it was run: as §1

[8] = test system: MLMA (Other Blood Carcinomas)
How it was run: as §1

[9] = test system: NCI-H1915 (Non-Small Cell Lung Carcinoma)
How it was run: as §1

[10] = test system: NEC8 (Other Solid Carcinomas)
How it was run: as §1

[11] = test system: NUGC-3 (Gastric Carcinoma)
How it was run: as §1

[12] = test system: OSC-20 (Oral Cavity Carcinoma)
How it was run: as §1

[13] = test system: OVCAR-4 (Ovarian Carcinoma)
How it was run: as §1

[14] = test system: PANC-04-03 (Pancreatic Carcinoma)
How it was run: as §1

[15] = test system: SCC-15 (Oral Cavity Carcinoma)
How it was run: as §1

[16] = test system: TE-1 (Esophageal Squamous Cell Carcinoma)
How it was run: as §1

[17] = test system: VA-ES-BJ (Other Solid Carcinomas)
How it was run: as §1

YH-13 (Glioblastoma) = test system: YH-13 (Glioblastoma)
How it was run: as §1

Row | SMILES | Bliss excess (ACHN (Kidney Carcinoma)) | Bliss excess [1] | Bliss excess [2] | Bliss excess [3] | Bliss excess (D-263MG (Glioblastoma)) | Bliss excess [4] | Bliss excess [5] | Bliss excess [6] | Bliss excess [7] | Bliss excess [8] | Bliss excess [9] | Bliss excess [10] | Bliss excess [11] | Bliss excess [12] | Bliss excess [13] | Bliss excess [14] | Bliss excess [15] | Bliss excess [16] | Bliss excess [17] | Bliss excess (YH-13 (Glioblastoma))
1 | Cc1c2c(nn1C)CSCc1cc(n(C)n1)CSc1cc(c3ccccc3c1)OCCCc1c(C(=O)O)n(C)c3c-2c(Cl)ccc13 [AZD5991] + Cc1cc2ncnn2cc1Nc1ncc2c(n1)n(C1CCOCC1)c(=O)n2C [AZD7648] (first compound max 1 µM, 7x7, partner max 10 µM) | -0.0271 | -0.0215 | -0.0135 | 0.0024 | 0.0046 | -0.0018 | -0.0702 | -0.0936 | -0.105 | -0.0001 | -0.0226 | -0.0056 | -0.0237 | -0.0567 | -0.0073 | -0.0242 | -0.042 | -0.0494 | -0.0239 | -0.091
2 | CC1(C)CCC(CN2CCN(c3ccc(C(=O)NS(=O)(=O)c4ccc(NCC5CCOCC5)c([N+](=O)[O-])c4)c(Oc4cnc5[nH]ccc5c4)c3)CC2)=C(c2ccc(Cl)cc2)C1 [Venetoclax] + Cn1cnc2c(F)c(Nc3ccc(Br)cc3Cl)c(C(=O)NOCCO)cc21 [Selumetinib] (first compound max 1 µM, 7x7, partner max 3 µM) | -0.0151 | 0.0092 | -0.0299 | 0.0087 | -0.0292 | 0.158 | -0.0211 | -0.0346 | -0.0153 | 0.0401 | -0.0541 | -0.0151 | 0.0051 | -0.038 | -0.02 | -0.0633 | -0.0428 | 0.0008 | -0.0473 | -0.0542
3 | COc1cccc(OCCCN)c1-c1cc(Nc2cnc(C#N)cn2)n[nH]1 [Prexasertib] + O=C(c1cc(Cc2n[nH]c(=O)c3ccccc23)ccc1F)N1CCN(C(=O)C2CC2)CC1 [Olaparib] (first compound max 1 µM, 7x7, partner max 10 µM) | -0.0857 | -0.0584 | -0.0783 | -0.0542 | -0.0665 | -0.0146 | 0.029 | -0.032 | -0.0678 | -0.0442 | -0.0002 | 0.0104 | -0.143 | -0.013 | -0.0589 | -0.0415 | 0.0242 | -0.11 | -0.0337 | -0.0598
4 | CC1(C)CCC(CN2CCN(c3ccc(C(=O)NS(=O)(=O)c4ccc(NCC5CCOCC5)c([N+](=O)[O-])c4)c(Oc4cnc5[nH]ccc5c4)c3)CC2)=C(c2ccc(Cl)cc2)C1 [Venetoclax] + COc1cc(Nc2ncc3c(n2)-c2ccc(Cl)cc2C(c2c(F)cccc2OC)=NC3)ccc1C(=O)O [Alisertib] (first compound max 1 µM, 7x7, partner max 10 µM) | 0.0062 | -0.0586 | -0.0158 | 0.0149 | 0.0522 | 0.0132 | -0.0528 | -0.0765 | -0.0164 | -0.046 | -0.0072 | -0.0037 | 0.0325 | -0.051 | -0.0215 | -0.0843 | -0.0257 | 0.0279 | -0.0089 | 0.111
5 | CN(C)CCCOc1ccc(-c2ccc3ncc4c(c3c2)n(C2CCOCC2)c(=O)n4C)cn1 [AZD0156] + C[C@@H]1COCCN1C2=NC(=NC(=C2)C3(CC3)[S@](=N)(=O)C)C4=C5C=CNC5=NC=C4 [AZD6738] (first compound max 1 µM, 7x7, partner max 10 µM) | -0.0212 | 0.0146 | 0.0071 | -0.0388 | 0.0366 | 0.0408 | -0.0461 | 0.0079 | 0.021 | -0.0132 | 0.0366 | 0.072 | 0.064 | -0.0085 | 0.0213 | -0.0398 | -0.0209 | -0.0595 | 0.0085 | 0.0019
6 | Cc1c2c(nn1C)CSCc1cc(n(C)n1)CSc1cc(c3ccccc3c1)OCCCc1c(C(=O)O)n(C)c3c-2c(Cl)ccc13 [AZD5991] + C[C@@H](Nc1cc(F)cc(F)c1)c1cc(C(=O)N(C)C)cc2c(=O)cc(N3CCOCC3)oc12 [AZD8186] (first compound max 1 µM, 7x7, partner max 3 µM) | 0.0607 | 0.0522 | 0.0655 | -0.0121 | 0.0849 | 0.0072 | -0.063 | -0.111 | -0.0428 | 0.0282 | -0.0265 | 0.008 | 0.0052 | -0.0335 | 0.0433 | -0.0045 | 0.0139 | -0.0186 | 0.0068 | 0.0058
7 | CC1(C)CCC(CN2CCN(c3ccc(C(=O)NS(=O)(=O)c4ccc(NCC5CCOCC5)c([N+](=O)[O-])c4)c(Oc4cnc5[nH]ccc5c4)c3)CC2)=C(c2ccc(Cl)cc2)C1 [Venetoclax] + C[C@@H]1COCCN1C2=NC(=NC(=C2)C3(CC3)[S@](=N)(=O)C)C4=C5C=CNC5=NC=C4 [AZD6738] (first compound max 1 µM, 7x7, partner max 10 µM) | -0.0445 | -0.0355 | -0.0398 | -0.0228 | 0.0199 | 0.0267 | -0.0509 | -0.0596 | -0.1 | -0.0275 | -0.0084 | -0.0293 | -0.035 | -0.0599 | -0.0384 | -0.0168 | -0.06 | -0.0131 | -0.0185 | -0.0325
8 | NC1(C(=O)N[C@@H](CCO)c2ccc(Cl)cc2)CCN(c2ncnc3[nH]ccc23)CC1 [Capivasertib] + CC(C)n1c(=O)n(C)c2cnc3cc(F)c(-c4ccc(OCCCN5CCCCC5)nc4)cc3c21 [AZD1390] (first compound max 10 µM, 7x7, partner max 0.3 µM) | -0.0389 | 0.0042 | -0.027 | -0.0095 | -0.0713 | -0.0173 | -0.0891 | -0.082 | -0.248 | -0.0216 | -0.0621 | -0.0089 | -0.0372 | -0.0528 | -0.0488 | -0.0997 | -0.0796 | -0.0818 | -0.0467 | -0.0372
9 | COc1cccc(OCCCN)c1-c1cc(Nc2cnc(C#N)cn2)n[nH]1 [Prexasertib] + C=CCn1c(=O)c2cnc(Nc3ccc(N4CCN(C)CC4)cc3)nc2n1-c1cccc(C(C)(C)O)n1 [AZD1775] (first compound max 1 µM, partner max 1 µM) | -0.0133 | 0.047 | 0.0337 | 0.007 | 0.0378 | 0.0565 | -0.0123 | -0.0579 | 0.0474 | 0.0034 | 0.0494 | 0.122 | 0.0979 | -0.0076 | 0.0205 | 0.0208 | 0.0227 | 0.0112 | 0.12 | 0.0439
10 | COc1cccc(OCCCN)c1-c1cc(Nc2cnc(C#N)cn2)n[nH]1 [Prexasertib] + Cc1cc2ncnn2cc1Nc1ncc2c(n1)n(C1CCOCC1)c(=O)n2C [AZD7648] (first compound max 1 µM, 7x7, partner max 10 µM) | -0.0182 | -0.004 | 0.0005 | -0.0361 | -0.0394 | -0.0003 | -0.0421 | 0.0183 | -0.0099 | -0.0204 | -0.008 | 0 | -0.0129 | 0.0115 | -0.0739 | -0.0327 | -0.0065 | -0.0266 | 0.013 | -0.0146
11 | CC1(C)CCC(CN2CCN(c3ccc(C(=O)NS(=O)(=O)c4ccc(NCC5CCOCC5)c([N+](=O)[O-])c4)c(Oc4cnc5[nH]ccc5c4)c3)CC2)=C(c2ccc(Cl)cc2)C1 [Venetoclax] + CN(C)CCCOc1ccc(-c2ccc3ncc4c(c3c2)n(C2CCOCC2)c(=O)n4C)cn1 [AZD0156] (first compound max 1 µM, 7x7, partner max 1 µM) | -0.0333 | -0.0122 | 0.0229 | -0.0256 | 0.0045 | 0.0038 | -0.0392 | -0.0841 | 0.0173 | 0.0062 | -0.018 | 0.0105 | -0.0035 | -0.0304 | -0.0338 | -0.062 | -0.0146 | -0.0468 | -0.0204 | -0.0972
12 | COc1nnc2ccc(N3CCC(c4ccc(OCCN5CCN(C)C(=O)[C@H]5C)cc4)CC3)nn12 [AZD5153] + C[C@@H]1COCCN1C2=NC(=NC(=C2)C3(CC3)[S@](=N)(=O)C)C4=C5C=CNC5=NC=C4 [AZD6738] (first compound max 1 µM, 7x7, partner max 10 µM) | 0.0379 | -0.0361 | 0.0654 | 0.097 | 0.0106 | -0.0066 | -0.0215 | -0.0137 | -0.0292 | -0.111 | -0.0054 | 0.0124 | 0.0398 | -0.0201 | 0.0127 | -0.008 | 0.0084 | 0.019 | 0.0315 | -0.0157
13 | C=CCn1c(=O)c2cnc(Nc3ccc(N4CCN(C)CC4)cc3)nc2n1-c1cccc(C(C)(C)O)n1 [AZD1775] + O=C(c1cc(Cc2n[nH]c(=O)c3ccccc23)ccc1F)N1CCN(C(=O)C2CC2)CC1 [Olaparib] (first compound max 1 µM, partner max 10 µM) | -0.0445 | -0.0631 | 0.0103 | -0.0343 | -0.0366 | 0.0165 | -0.0337 | 0.0002 | -0.0598 | -0.0914 | -0.0223 | 0.0029 | -0.0798 | -0.0205 | 0.0249 | -0.0407 | -0.043 | -0.0834 | -0.0424 | -0.0513
14 | COc1nnc2ccc(N3CCC(c4ccc(OCCN5CCN(C)C(=O)[C@H]5C)cc4)CC3)nn12 [AZD5153] + Cc1c2c(nn1C)CSCc1cc(n(C)n1)CSc1cc(c3ccccc3c1)OCCCc1c(C(=O)O)n(C)c3c-2c(Cl)ccc13 [AZD5991] (first compound max 1 µM, 7x7, partner max 1 µM) | -0.0565 | -0.0514 | 0.0867 | 0.0265 | 0.105 | -0.0073 | -0.101 | -0.0369 | -0.0445 | -0.0085 | -0.0343 | 0.0672 | -0.0233 | -0.0091 | -0.0152 | -0.0038 | -0.0167 | -0.0166 | -0.0174 | -0.0069
